{"source": "patent US20250195463A1", "about": "“ORGANOMETALLIC COMPLEX, CONTROLLED-RELEASE MULTI-FUNCTIONAL DRUG, PHARMACEUTICAL COMPOSITION, PROCESSES FOR THE PREPARATION THEREOF AND THEIR USE” (FACULDADE DE CIÊNCIAS DA UNIVERSIDADE DE LISBOA, priority 2022, published 2025)", "key": {"[1]": {"experiment": "Stability in organic medium (dimethyl sulfoxide) by UV-Vis spectroscopy", "type": "physicochemical", "details": "band 357-425 nm (λmax in column head)", "procedure": "(§1) The stability of the complexes 4-11 in organic and aqueous media was evaluated over 24 h by UV-Vis spectroscopy at room temperature, in dark, on a Jasco V-660 spectrometer using quartz cuvettes (1 cm optical path length). The electronic spectra (270-900 nm) were acquired at regular periods of time (0 h, 0.25 h, 0.5 h, 0.75 h, 1 h, 2 h, 3 h, 4 h, 5 h, 6 h, 24 h) for solutions of 100% dimethyl sulfoxide (complexes 4-11) and 5% dimethyl sulfoxide/95% Dulbecco's Modified Eagle Medium (complexes 4, 5 and 8-11) or 10% dimethyl sulfoxide/90% Dulbecco's Modified Eagle Medium (complexes 6 and 7) at concentrations ranging from 7.0×10^-5 M to 3.0×10^-4 M."}, "[2]": {"experiment": "Stability in aqueous medium (dimethyl sulfoxide/Dulbecco's Modified Eagle Medium) by UV-Vis spectroscopy", "type": "physicochemical", "details": "for Relative variation of the maximum absorbance of the π→π* transitions: band 292-296 nm (λmax in column head); for Relative variation of the maximum absorbance of the charge transfer bands: band 358-400 nm (λmax in column head)", "procedure": "as §1"}, "[3]": {"details": "10% dimethyl sulfoxide/90% Dulbecco's Modified Eagle Medium, time 0 h"}, "[4]": {"details": "10% dimethyl sulfoxide/90% Dulbecco's Modified Eagle Medium, time 0.25 h"}, "[5]": {"details": "10% dimethyl sulfoxide/90% Dulbecco's Modified Eagle Medium, time 0.5 h"}, "[6]": {"details": "10% dimethyl sulfoxide/90% Dulbecco's Modified Eagle Medium, time 0.75 h"}, "[7]": {"details": "10% dimethyl sulfoxide/90% Dulbecco's Modified Eagle Medium, time 1 h"}, "[8]": {"details": "10% dimethyl sulfoxide/90% Dulbecco's Modified Eagle Medium, time 2 h"}, "[9]": {"details": "10% dimethyl sulfoxide/90% Dulbecco's Modified Eagle Medium, time 3 h"}, "[10]": {"details": "10% dimethyl sulfoxide/90% Dulbecco's Modified Eagle Medium, time 4 h"}, "[11]": {"details": "10% dimethyl sulfoxide/90% Dulbecco's Modified Eagle Medium, time 5 h"}, "[12]": {"details": "10% dimethyl sulfoxide/90% Dulbecco's Modified Eagle Medium, time 6 h"}, "[13]": {"details": "10% dimethyl sulfoxide/90% Dulbecco's Modified Eagle Medium, time 24 h"}, "[14]": {"details": "5% dimethyl sulfoxide/95% Dulbecco's Modified Eagle Medium, time 0 h"}, "[15]": {"details": "5% dimethyl sulfoxide/95% Dulbecco's Modified Eagle Medium, time 0.25 h"}, "[16]": {"details": "5% dimethyl sulfoxide/95% Dulbecco's Modified Eagle Medium, time 0.5 h"}, "[17]": {"details": "5% dimethyl sulfoxide/95% Dulbecco's Modified Eagle Medium, time 0.75 h"}, "[18]": {"details": "5% dimethyl sulfoxide/95% Dulbecco's Modified Eagle Medium, time 1 h"}, "[19]": {"details": "5% dimethyl sulfoxide/95% Dulbecco's Modified Eagle Medium, time 2 h"}, "[20]": {"details": "5% dimethyl sulfoxide/95% Dulbecco's Modified Eagle Medium, time 3 h"}, "[21]": {"details": "5% dimethyl sulfoxide/95% Dulbecco's Modified Eagle Medium, time 4 h"}, "[22]": {"details": "5% dimethyl sulfoxide/95% Dulbecco's Modified Eagle Medium, time 5 h"}, "[23]": {"details": "5% dimethyl sulfoxide/95% Dulbecco's Modified Eagle Medium, time 6 h"}, "[24]": {"details": "5% dimethyl sulfoxide/95% Dulbecco's Modified Eagle Medium, time 24 h"}}}
{"smiles": "CC(=O)C1=C[CH]([Ru-]2([PH](c3ccccc3)(c3ccccc3)c3ccccc3)[n+]3cccc4ccc5ccc[n+]2c5c43)C=C1.O=S(=O)([O-])C(F)(F)F", "note": "(stereo not drawn) [compound 6]", "values": [{"measurement": "Relative variation of the maximum absorbance of the charge transfer bands", "setting": "[1]; time 0 h", "value": 0.0, "unit": "%"}, {"measurement": "Relative variation of the maximum absorbance of the charge transfer bands", "setting": "[1]; time 0.25 h", "value": "−0.1", "unit": "%"}, {"measurement": "Relative variation of the maximum absorbance of the charge transfer bands", "setting": "[1]; time 0.5 h", "value": 0.2, "unit": "%"}, {"measurement": "Relative variation of the maximum absorbance of the charge transfer bands", "setting": "[1]; time 0.75 h", "value": 0.0, "unit": "%"}, {"measurement": "Relative variation of the maximum absorbance of the charge transfer bands", "setting": "[1]; time 1 h", "value": 0.9, "unit": "%"}, {"measurement": "Relative variation of the maximum absorbance of the charge transfer bands", "setting": "[1]; time 2 h", "value": 2.6, "unit": "%"}, {"measurement": "Relative variation of the maximum absorbance of the charge transfer bands", "setting": "[1]; time 3 h", "value": 1.3, "unit": "%"}, {"measurement": "Relative variation of the maximum absorbance of the charge transfer bands", "setting": "[1]; time 4 h", "value": 1.5, "unit": "%"}, {"measurement": "Relative variation of the maximum absorbance of the charge transfer bands", "setting": "[1]; time 5 h", "value": "−0.2", "unit": "%"}, {"measurement": "Relative variation of the maximum absorbance of the charge transfer bands", "setting": "[1]; time 6 h", "value": "−0.3", "unit": "%"}, {"measurement": "Relative variation of the maximum absorbance of the charge transfer bands", "setting": "[1]; time 24 h", "value": 0.3, "unit": "%"}, {"measurement": "Relative variation of the maximum absorbance of the π→π* transitions", "setting": "[2]; [3]", "value": 0.0, "unit": "%"}, {"measurement": "Relative variation of the maximum absorbance of the charge transfer bands", "setting": "[2]; [3]", "value": 0.0, "unit": "%"}, {"measurement": "Relative variation of the maximum absorbance of the π→π* transitions", "setting": "[2]; [4]", "value": "−0.4", "unit": "%"}, {"measurement": "Relative variation of the maximum absorbance of the charge transfer bands", "setting": "[2]; [4]", "value": 0.0, "unit": "%"}, {"measurement": "Relative variation of the maximum absorbance of the π→π* transitions", "setting": "[2]; [5]", "value": 0.4, "unit": "%"}, {"measurement": "Relative variation of the maximum absorbance of the charge transfer bands", "setting": "[2]; [5]", "value": 0.4, "unit": "%"}, {"measurement": "Relative variation of the maximum absorbance of the π→π* transitions", "setting": "[2]; [6]", "value": 0.3, "unit": "%"}, {"measurement": "Relative variation of the maximum absorbance of the charge transfer bands", "setting": "[2]; [6]", "value": 0.3, "unit": "%"}, {"measurement": "Relative variation of the maximum absorbance of the π→π* transitions", "setting": "[2]; [7]", "value": "−0.2", "unit": "%"}, {"measurement": "Relative variation of the maximum absorbance of the charge transfer bands", "setting": "[2]; [7]", "value": 0.0, "unit": "%"}, {"measurement": "Relative variation of the maximum absorbance of the π→π* transitions", "setting": "[2]; [8]", "value": 1.0, "unit": "%"}, {"measurement": "Relative variation of the maximum absorbance of the charge transfer bands", "setting": "[2]; [8]", "value": 0.6, "unit": "%"}, {"measurement": "Relative variation of the maximum absorbance of the π→π* transitions", "setting": "[2]; [9]", "value": 2.0, "unit": "%"}, {"measurement": "Relative variation of the maximum absorbance of the charge transfer bands", "setting": "[2]; [9]", "value": 0.8, "unit": "%"}, {"measurement": "Relative variation of the maximum absorbance of the π→π* transitions", "setting": "[2]; [10]", "value": 2.1, "unit": "%"}, {"measurement": "Relative variation of the maximum absorbance of the charge transfer bands", "setting": "[2]; [10]", "value": 0.8, "unit": "%"}, {"measurement": "Relative variation of the maximum absorbance of the π→π* transitions", "setting": "[2]; [11]", "value": 1.3, "unit": "%"}, {"measurement": "Relative variation of the maximum absorbance of the charge transfer bands", "setting": "[2]; [11]", "value": 0.4, "unit": "%"}, {"measurement": "Relative variation of the maximum absorbance of the π→π* transitions", "setting": "[2]; [12]", "value": 1.5, "unit": "%"}, {"measurement": "Relative variation of the maximum absorbance of the charge transfer bands", "setting": "[2]; [12]", "value": 0.2, "unit": "%"}, {"measurement": "Relative variation of the maximum absorbance of the π→π* transitions", "setting": "[2]; [13]", "value": 5.3, "unit": "%"}, {"measurement": "Relative variation of the maximum absorbance of the charge transfer bands", "setting": "[2]; [13]", "value": 1.8, "unit": "%"}]}
{"smiles": "CCOC(=O)Oc1cc[n+]2c(c1)-c1cc(OC)cc[n+]1[Ru-]2([CH]1C=CC=C1)[PH](c1ccccc1)(c1ccccc1)c1ccccc1.O=S(=O)([O-])C(F)(F)F", "note": "(stereo not drawn) [compound 11]", "values": [{"measurement": "Relative variation of the maximum absorbance of the charge transfer bands", "setting": "[1]; time 0 h", "value": 0.0, "unit": "%"}, {"measurement": "Relative variation of the maximum absorbance of the charge transfer bands", "setting": "[1]; time 0.25 h", "value": 0.0, "unit": "%"}, {"measurement": "Relative variation of the maximum absorbance of the charge transfer bands", "setting": "[1]; time 0.5 h", "value": 0.2, "unit": "%"}, {"measurement": "Relative variation of the maximum absorbance of the charge transfer bands", "setting": "[1]; time 0.75 h", "value": 0.1, "unit": "%"}, {"measurement": "Relative variation of the maximum absorbance of the charge transfer bands", "setting": "[1]; time 1 h", "value": 0.3, "unit": "%"}, {"measurement": "Relative variation of the maximum absorbance of the charge transfer bands", "setting": "[1]; time 2 h", "value": 0.1, "unit": "%"}, {"measurement": "Relative variation of the maximum absorbance of the charge transfer bands", "setting": "[1]; time 3 h", "value": 0.0, "unit": "%"}, {"measurement": "Relative variation of the maximum absorbance of the charge transfer bands", "setting": "[1]; time 4 h", "value": "−0.2", "unit": "%"}, {"measurement": "Relative variation of the maximum absorbance of the charge transfer bands", "setting": "[1]; time 5 h", "value": "−0.3", "unit": "%"}, {"measurement": "Relative variation of the maximum absorbance of the charge transfer bands", "setting": "[1]; time 6 h", "value": "−0.3", "unit": "%"}, {"measurement": "Relative variation of the maximum absorbance of the charge transfer bands", "setting": "[1]; time 24 h", "value": 0.2, "unit": "%"}, {"measurement": "Relative variation of the maximum absorbance of the π→π* transitions", "setting": "[2]; [14]", "value": 0.0, "unit": "%"}, {"measurement": "Relative variation of the maximum absorbance of the charge transfer bands", "setting": "[2]; [14]", "value": 0.0, "unit": "%"}, {"measurement": "Relative variation of the maximum absorbance of the π→π* transitions", "setting": "[2]; [15]", "value": "−0.2", "unit": "%"}, {"measurement": "Relative variation of the maximum absorbance of the charge transfer bands", "setting": "[2]; [15]", "value": "−0.1", "unit": "%"}, {"measurement": "Relative variation of the maximum absorbance of the π→π* transitions", "setting": "[2]; [16]", "value": "−0.3", "unit": "%"}, {"measurement": "Relative variation of the maximum absorbance of the charge transfer bands", "setting": "[2]; [16]", "value": 0.0, "unit": "%"}, {"measurement": "Relative variation of the maximum absorbance of the π→π* transitions", "setting": "[2]; [17]", "value": "−0.2", "unit": "%"}, {"measurement": "Relative variation of the maximum absorbance of the charge transfer bands", "setting": "[2]; [17]", "value": 0.1, "unit": "%"}, {"measurement": "Relative variation of the maximum absorbance of the π→π* transitions", "setting": "[2]; [18]", "value": "−0.2", "unit": "%"}, {"measurement": "Relative variation of the maximum absorbance of the charge transfer bands", "setting": "[2]; [18]", "value": 0.1, "unit": "%"}, {"measurement": "Relative variation of the maximum absorbance of the π→π* transitions", "setting": "[2]; [19]", "value": "−0.5", "unit": "%"}, {"measurement": "Relative variation of the maximum absorbance of the charge transfer bands", "setting": "[2]; [19]", "value": 0.1, "unit": "%"}, {"measurement": "Relative variation of the maximum absorbance of the π→π* transitions", "setting": "[2]; [20]", "value": "−0.4", "unit": "%"}, {"measurement": "Relative variation of the maximum absorbance of the charge transfer bands", "setting": "[2]; [20]", "value": 0.1, "unit": "%"}, {"measurement": "Relative variation of the maximum absorbance of the π→π* transitions", "setting": "[2]; [21]", "value": "−0.9", "unit": "%"}, {"measurement": "Relative variation of the maximum absorbance of the charge transfer bands", "setting": "[2]; [21]", "value": 0.0, "unit": "%"}, {"measurement": "Relative variation of the maximum absorbance of the π→π* transitions", "setting": "[2]; [22]", "value": "−0.7", "unit": "%"}, {"measurement": "Relative variation of the maximum absorbance of the charge transfer bands", "setting": "[2]; [22]", "value": 0.1, "unit": "%"}, {"measurement": "Relative variation of the maximum absorbance of the π→π* transitions", "setting": "[2]; [23]", "value": "−0.4", "unit": "%"}, {"measurement": "Relative variation of the maximum absorbance of the charge transfer bands", "setting": "[2]; [23]", "value": 0.2, "unit": "%"}, {"measurement": "Relative variation of the maximum absorbance of the π→π* transitions", "setting": "[2]; [24]", "value": "−1.0", "unit": "%"}, {"measurement": "Relative variation of the maximum absorbance of the charge transfer bands", "setting": "[2]; [24]", "value": 0.4, "unit": "%"}]}
